Source: patent US12497402B2, “IRAK4 degraders and uses thereof” (priority 2021, dated 2025)
Where “and” joins values, the source holds several entries; their conditions need not be identical. Equal values may be shown once. Blank lines part the entries; values can stand above or below the compound they belong to.

Columns and labels:
in vivo = conditions: dog
Description: The vehicle was HPBCD (Kleptose Oral Grade HPB) prepared in reverse osmosis water.
Assessment of toxicity was based on mortality, clinical observations, body weights, food consumption, ophthalmic observations, electrocardiographic (ECG) measurements, and clinical and anatomic pathology. Blood samples were collected for toxicokinetic evaluation.

[1] = target: T1, breast cancer resistance protein (BCRP) (Homo sapiens, UniProt Q9UNQ0); assay: BCRP substrate assessment in vitro; format: in vitro ADME
T1 sequence (Q9UNQ0 1-655): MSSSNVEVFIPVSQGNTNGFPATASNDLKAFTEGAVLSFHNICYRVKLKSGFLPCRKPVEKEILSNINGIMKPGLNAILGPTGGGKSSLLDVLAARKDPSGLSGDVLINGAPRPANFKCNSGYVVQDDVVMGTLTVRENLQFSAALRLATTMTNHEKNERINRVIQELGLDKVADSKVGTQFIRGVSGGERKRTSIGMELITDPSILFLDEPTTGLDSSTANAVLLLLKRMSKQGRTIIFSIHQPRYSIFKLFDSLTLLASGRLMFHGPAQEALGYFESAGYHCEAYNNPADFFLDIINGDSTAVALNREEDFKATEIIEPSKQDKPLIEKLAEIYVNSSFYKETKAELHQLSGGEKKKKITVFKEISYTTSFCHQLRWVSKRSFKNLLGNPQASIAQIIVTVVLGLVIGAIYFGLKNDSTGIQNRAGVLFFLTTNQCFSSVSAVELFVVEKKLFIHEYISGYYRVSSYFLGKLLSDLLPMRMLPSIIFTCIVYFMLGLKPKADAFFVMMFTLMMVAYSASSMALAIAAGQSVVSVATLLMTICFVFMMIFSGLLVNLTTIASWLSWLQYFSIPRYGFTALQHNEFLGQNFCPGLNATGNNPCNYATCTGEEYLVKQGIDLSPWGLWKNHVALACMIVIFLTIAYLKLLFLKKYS

[2] = In vivo pharmacokinetic studies in rats, dogs and monkeys
BCRP = target: T2, BCRP (Homo sapiens, UniProt Q9UNQ0); assay: In vitro drug-drug interaction study, BCRP efflux; format: in vitro ADME
T2 sequence (Q9UNQ0 1-655): T1 sequence (Q9UNQ0 1-655)

[3] = 4-week oral gavage toxicity study with Compound A in dogs with 2-week recovery; format: in vivo; conditions: for Reversal of vacuolated macrophages at recovery sacrifice: 30 or 200/60 mg/kg/dose
CYP2C19 = CYP2C19 (Homo sapiens, UniProt P33261); assay: In vitro drug-drug interaction study, CYP2C19; format: in vitro ADME
CYP2C19, sequence (P33261 whole entry): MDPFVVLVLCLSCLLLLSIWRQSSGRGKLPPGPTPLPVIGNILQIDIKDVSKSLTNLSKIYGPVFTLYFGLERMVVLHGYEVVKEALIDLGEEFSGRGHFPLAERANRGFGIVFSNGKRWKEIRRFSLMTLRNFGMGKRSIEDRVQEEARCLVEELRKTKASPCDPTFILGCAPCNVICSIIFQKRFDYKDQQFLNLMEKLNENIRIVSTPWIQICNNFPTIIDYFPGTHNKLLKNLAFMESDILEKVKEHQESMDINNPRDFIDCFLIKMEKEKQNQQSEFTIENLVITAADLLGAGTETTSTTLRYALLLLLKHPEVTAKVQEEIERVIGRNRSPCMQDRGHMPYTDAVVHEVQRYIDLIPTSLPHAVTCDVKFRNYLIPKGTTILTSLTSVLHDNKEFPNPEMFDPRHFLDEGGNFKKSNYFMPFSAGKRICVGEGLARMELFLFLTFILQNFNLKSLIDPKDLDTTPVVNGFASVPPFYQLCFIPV

[4] = system: TLR agonist (lipopolysaccharide and R848) and IL-1β-induced proinflammatory cytokine production; assay: In vitro cytokine release assays in PBMCs; format: cell-based; conditions: R848 and IL-1β stimulation, IL-6, TNF-α, GM-CSF, IL-8
[5] = system: imiquimod psoriasis model (TLR 7/8-dependent); assay: Imiquimod psoriasis model; format: in vivo, mouse
[6] = Excretion study in bile duct-cannulated (BDC) rats; format: in vivo, rat
cytochrome P450 (CYP) = assay: In vitro and in vivo metabolism studies; format: in vitro ADME
Solubility = format: physicochemical
[7] = Red blood cell partitioning; format: in vitro ADME
[8] = Distribution studies in rats; format: in vivo, rat
CYP3A4 = CYP3A4 (Homo sapiens, UniProt P08684); assay: In vitro drug-drug interaction study, CYP3A4; format: in vitro ADME
CYP3A4, sequence (P08684 whole entry): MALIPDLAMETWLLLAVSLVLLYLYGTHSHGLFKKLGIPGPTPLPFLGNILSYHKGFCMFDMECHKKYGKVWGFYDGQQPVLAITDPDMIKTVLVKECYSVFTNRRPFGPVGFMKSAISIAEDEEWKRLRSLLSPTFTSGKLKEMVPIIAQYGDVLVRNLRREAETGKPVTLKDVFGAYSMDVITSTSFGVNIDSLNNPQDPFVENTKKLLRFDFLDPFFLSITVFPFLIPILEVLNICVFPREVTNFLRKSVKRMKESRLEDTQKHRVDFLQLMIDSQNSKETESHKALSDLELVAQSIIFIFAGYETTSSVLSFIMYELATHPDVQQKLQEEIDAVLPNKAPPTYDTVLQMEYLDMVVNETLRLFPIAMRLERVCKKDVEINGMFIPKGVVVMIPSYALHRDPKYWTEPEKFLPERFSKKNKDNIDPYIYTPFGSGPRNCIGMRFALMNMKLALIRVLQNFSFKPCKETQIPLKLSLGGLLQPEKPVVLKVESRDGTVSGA

Plasma protein binding = format: in vitro ADME; conditions: across nonclinical species and humans
Permeability = format: in vitro ADME
P-glycoprotein (P-gp) = P-glycoprotein (P-gp) (Homo sapiens, UniProt P08183); assay: P-gp substrate assessment in vitro; format: in vitro ADME
P-glycoprotein (P-gp), sequence (P08183 whole entry): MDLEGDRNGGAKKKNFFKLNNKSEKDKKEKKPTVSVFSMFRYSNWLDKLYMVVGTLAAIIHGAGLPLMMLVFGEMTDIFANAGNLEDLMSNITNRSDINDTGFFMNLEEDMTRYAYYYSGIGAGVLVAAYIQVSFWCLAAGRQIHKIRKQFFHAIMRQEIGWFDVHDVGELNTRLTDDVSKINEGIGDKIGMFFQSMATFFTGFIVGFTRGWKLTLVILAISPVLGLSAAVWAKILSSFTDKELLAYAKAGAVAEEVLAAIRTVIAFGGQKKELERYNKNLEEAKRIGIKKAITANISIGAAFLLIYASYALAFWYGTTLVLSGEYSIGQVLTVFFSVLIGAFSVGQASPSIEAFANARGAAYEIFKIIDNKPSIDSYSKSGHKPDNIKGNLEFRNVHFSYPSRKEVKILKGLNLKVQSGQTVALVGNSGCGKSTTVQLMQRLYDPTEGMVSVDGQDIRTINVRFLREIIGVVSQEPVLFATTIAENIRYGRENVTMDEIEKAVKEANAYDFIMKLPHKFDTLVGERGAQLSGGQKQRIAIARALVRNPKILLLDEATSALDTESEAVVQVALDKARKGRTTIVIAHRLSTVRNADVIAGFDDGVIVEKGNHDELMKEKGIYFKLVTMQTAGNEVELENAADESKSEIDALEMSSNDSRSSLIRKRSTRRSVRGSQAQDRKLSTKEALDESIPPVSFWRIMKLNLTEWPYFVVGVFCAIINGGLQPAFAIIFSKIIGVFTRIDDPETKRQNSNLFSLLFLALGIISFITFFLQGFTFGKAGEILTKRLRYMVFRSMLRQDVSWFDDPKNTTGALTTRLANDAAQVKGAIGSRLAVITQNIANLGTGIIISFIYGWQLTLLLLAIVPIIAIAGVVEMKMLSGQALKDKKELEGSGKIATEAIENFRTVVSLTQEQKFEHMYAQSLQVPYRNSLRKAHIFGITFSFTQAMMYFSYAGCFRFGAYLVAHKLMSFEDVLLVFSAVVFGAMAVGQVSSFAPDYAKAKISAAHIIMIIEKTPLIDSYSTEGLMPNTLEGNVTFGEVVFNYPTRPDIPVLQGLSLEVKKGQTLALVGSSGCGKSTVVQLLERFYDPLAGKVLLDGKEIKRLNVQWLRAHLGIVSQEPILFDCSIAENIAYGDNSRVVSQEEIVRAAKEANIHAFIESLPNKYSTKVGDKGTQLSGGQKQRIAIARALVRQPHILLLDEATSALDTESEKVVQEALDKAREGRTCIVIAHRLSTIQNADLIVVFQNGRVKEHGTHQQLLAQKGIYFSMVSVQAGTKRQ

[9] = system: MSU-crystal induced (TLR 2/4-dependent) inflammation; assay: Mouse air pouch model of MSU-crystal induced inflammation; format: in vivo; conditions: 3 days twice daily, 30 to 100 mg/kg
[10] = both, beagle, in vivo, po, 5 mg/kg, Tmax
[11] = both, beagle, in vivo, po, 5 mg/kg, t1/2
[12] = both, beagle, in vivo, po, 30 mg/kg, Tmax
[13] = both, beagle, in vivo, po, 60 mg/kg, Tmax
[14] = both, beagle, in vivo, po, 60 mg/kg/day, median Tmax
[15] = both, beagle, in vivo, po, 100 mg/kg, Tmax
[16] = both, beagle, in vivo, po, median Tmax
[17] = both, beagle, in vivo, po, 200 mg/kg, Tmax

Potential accumulation after multiple doses (in vivo; both, beagle, in vivo): ≤ 1.98 fold
Sex differences in mean Cmax and AUC0-24 values (in vivo; both, beagle, in vivo): less than 2 fold
Tmax (in vivo; [10]): 4 h
half-life (in vivo; [11]): 456 min
Tmax (in vivo; [12]): 4 h
Tmax (in vivo; [13]): 4 h
Tmax (in vivo; [14]): 4 h
Tmax (in vivo; [15]): 6 h
Tmax (in vivo; [16]): 6 to 9 h
Dose proportionality of increases in mean Cmax and AUC0-24 (in vivo; in vivo): less than dose proportional
SMILES: Cn1c(=O)n([C@H]2CCC(=O)NC2=O)c2cccc(C#CCOC3CCN(C[C@H]4CC[C@H](n5cc(NC(=O)c6cnn7ccc(N8C[C@H]9C[C@@H]8CO9)nc67)c(C(F)F)n5)CC4)CC3)c21 [Compound B, 5-((1R,4R)-2-oxa-5-azabicyclo[2.2.1]heptan-5-yl)-N-(3-(difluoromethyl)-1-((1r,4R)-4-((4-((3-(1-((S)-2,6-dioxopiperidin-3-yl)-3-methyl-2-oxo-2,3-dihydro-1H-benzo[d]imidazol-4-yl)prop-2-yn-1-yl)oxy)piperidin-1-yl)methyl)cyclohexyl)-1H-pyrazol-4-yl)pyrazolo[1,5-a]pyrimidine-3-carboxamide]

SMILES: Cn1c(=O)n(C2CCC(=O)NC2=O)c2cccc(C#CCOC3CCN(C[C@H]4CC[C@H](n5cc(NC(=O)c6cnn7ccc(N8C[C@H]9C[C@@H]8CO9)nc67)c(C(F)F)n5)CC4)CC3)c21 (stereo partly drawn) [Compound A, 5-((1R,4R)-2-oxa-5-azabicyclo[2.2.1]heptan-5-yl)-N-(3-(difluoromethyl)-1-((1r,4R)-4-((4-((3-(1-(2,6-dioxopiperidin-3-yl)-3-methyl-2-oxo-2,3-dihydro-1H-benzo[d]imidazol-4-yl)prop-2-yn-1-yl)oxy)piperidin-1-yl)methyl)cyclohexyl)-1H-pyrazol-4-yl)pyrazolo[1,5-a]pyrimidine-3-carboxamide]
BCRP substrate status [1]: substrate
Bioavailability [2]: low to moderate bioavailability
Clearance [2]: moderate to high clearance
Terminal half-life [2]: moderate terminal half-life
Volume of distribution at steady state [2]: high volume of distribution at steady state
Inhibition of BCRP efflux (BCRP): inhibited BCRP efflux
NOAEL at 4 weeks ([3]; both sexes, beagle, dog, in vivo, dogs, oral gavage once daily, 4 weeks, read-out: no observed adverse effect level (NOAEL)): 60 mg/kg/day
Body weight, body weight gain, food consumption ([3]; dog, in vivo): No Compound A-related alterations in mean body weight, body weight gain, or food consumption were noted at any dose level
Clinical and ophthalmic observations ([3]; dog, in vivo): No Compound A-related clinical observations or abnormal ophthalmic observations were noted
ECG observation ([3]; dog, in vivo): No Compound A-related abnormalities were noted during the dosing phase ECG observation
Hematology, coagulation, clinical chemistry, urinalysis ([3]; dog, in vivo): No Compound A-related effects in scheduled hematology, coagulation, clinical chemistry, or urinalysis test results were identified
Organ weights and macroscopic observations ([3]; dog, in vivo): No Compound A-related organ weight differences or macroscopic observations were noted
Microscopic findings (vacuolated macrophages) ([3]; dog, in vivo, 30 mg/kg): increases of vacuolated macrophages in the small intestine, lymphoid tissues, and lung were considered nonadverse
Mortality ([3]; female, beagle, dog, in vivo, 100 mg/kg, 4 day (of dosing phase)): One female administered 100 mg/kg/dose was sacrificed in a moribund condition on Day 4 of the dosing phase
Reversal of vacuolated macrophages at recovery sacrifice ([3]; mesenteric lymph node): lack of reversal after 2 weeks
Reversal of vacuolated macrophages at recovery sacrifice ([3]; small intestine, GALT/Peyer's patches, mandibular lymph nodes, lung, 2-week recovery): partial reversal
Reversal of vacuolated macrophages at recovery sacrifice ([3]; spleen, 2-week recovery): complete reversal
Inhibition of CYP2C19 (CYP2C19): potential time dependent inhibition (TDI)
IC50 (inhibition of proinflammatory cytokine production) [4]: low nM range
IRAK4 degradation in spleen and skin ([5]; mouse, in vivo): dose-dependent degradation of IRAK4 in the spleen and skin
Skin thickness ([5]; mouse, in vivo): reduction in skin thickness
IL-1β in the skin ([5]; p<0.0001): significant reduction
IL-6 in the skin ([5]; p<0.05, 300 mg/kg only): significant reduction
Biliary and intestinal excretion [6]: minor to moderate biliary and intestinal excretion as parent drug
Renal clearance [6]: negligible renal clearance
Main metabolizing enzyme (cytochrome P450 (CYP)): primarily metabolized by CYP3A4
Metabolic pathway (cytochrome P450 (CYP); in vitro and in vivo): underwent oxidative metabolism via cytochrome P450 (CYP)
Solubility (Solubility): low solubility
Partitioning into red blood cells [7]: did not significantly partition into red blood cells
CNS penetration [8]: limited penetration into the central nervous system (CNS)
Tissue distribution [8]: extensively distributed into tissues
half-life (in vivo; beagle, plasma, po, 30 mg/kg, t1/2, elimination half-life, N = 1, dog plasma, Day 1, Group 3, Cmpd A 30 mg/kg/dose oral gavage): 392 min
Potential accumulation after multiple doses (in vivo; both, beagle, in vivo): up to 2.14 fold
Sex differences in mean Cmax and AUC0-24 values (in vivo; both, beagle, in vivo): less than 2 fold
median Tmax (in vivo; both, beagle, in vivo, po): 5.00 to 12.0 h
Tmax (in vivo; [10]): 4 h
Tmax (in vivo; [12]): 5 h and 4 h
Tmax (in vivo; [13]): 6 h
Tmax (in vivo; [14]): 6 h
Tmax (in vivo; [15]): 9 h
Tmax (in vivo; [17]): 12 h
Tmax (in vivo; [16]): 5 to 9 h
half-life (in vivo; both, beagle, plasma, po, 5 mg/kg, t1/2, mean elimination half-life, dog plasma, Day 1, Group 2, Cmpd A 5 mg/kg/dose oral gavage): 456 min
half-life (in vivo; both, beagle, plasma, po, 5 mg/kg, t1/2, mean elimination half-life, dog plasma, Day 8, Group 2, Cmpd A 5 mg/kg/dose oral gavage): 485 min
half-life (in vivo; both, beagle, plasma, po, 5 mg/kg, t1/2, mean elimination half-life, dog plasma, Day 28, Group 2, Cmpd A 5 mg/kg/dose oral gavage): 491 min
half-life (in vivo; both, beagle, plasma, po, mean half-life (t1/2), dog plasma, Day 1, range across groups): 392 to 456 min
Dose proportionality of increases in mean Cmax and AUC0-24 (in vivo; in vivo): less than dose proportional
Inhibition of CYP3A4 (CYP3A4): potential time dependent inhibition (TDI)
Plasma protein binding (Plasma protein binding): highly bound to plasma proteins
Permeability (Permeability): moderate permeability
P-gp substrate status (P-glycoprotein (P-gp)): substrate
IRAK4 levels in the spleen [9]: significantly reduced IRAK4 levels in the spleen
Inflammatory exudate (neutrophils, IL-1β) [9]: significantly reduced the inflammatory exudate

Potential accumulation after multiple doses (in vivo; both, beagle, in vivo): ≤ 1.86 fold
Sex differences in mean Cmax and AUC0-24 values (in vivo; both, beagle, in vivo): less than 2 fold
Tmax (in vivo; [10]): 4 h
half-life (in vivo; [11]): 459 min
Tmax (in vivo; [12]): 4 h
Tmax (in vivo; [13]): 4 h
Tmax (in vivo; both, beagle, in vivo, po, 60 mg/kg, median Tmax): 4 h
Tmax (in vivo; [15]): 6 h
Tmax (in vivo; [17]): 4 h
Tmax (in vivo; [16]): 6 h
Dose proportionality of increases in mean Cmax and AUC0-24 (in vivo; in vivo): less than dose proportional
SMILES: Cn1c(=O)n([C@@H]2CCC(=O)NC2=O)c2cccc(C#CCOC3CCN(C[C@H]4CC[C@H](n5cc(NC(=O)c6cnn7ccc(N8C[C@H]9C[C@@H]8CO9)nc67)c(C(F)F)n5)CC4)CC3)c21 [Compound C, 5-((1R,4R)-2-oxa-5-azabicyclo[2.2.1]heptan-5-yl)-N-(3-(difluoromethyl)-1-((1r,4R)-4-((4-((3-(1-((R)-2,6-dioxopiperidin-3-yl)-3-methyl-2-oxo-2,3-dihydro-1H-benzo[d]imidazol-4-yl)prop-2-yn-1-yl)oxy)piperidin-1-yl)methyl)cyclohexyl)-1H-pyrazol-4-yl)pyrazolo[1,5-a]pyrimidine-3-carboxamide]
